# Measured values: US20260151375A1, “CDK2 INHIBITORS AND METHODS OF USING THE SAME” (Cedilla Therapeutics, Inc., priority 2022, published 2026)
# Where two headings read alike, the source gives them in different places.
# Tests used:
# Kuramochi cells = assay: IncuCyte Kuramochi Assay (cell proliferation); format: cell-based; details: Kuramochi cells labeled with mApple-H2B, cell count, read-out: IncuCyte - Kuramochi RB-WT: IC50
# Protocol: IncuCyte® assay was used to measure the effect of disclosed compounds on cell proliferation. Fluorescent microscopy images of cells were taken immediately after compound treatment and 72 hours later. Image analysis software was used to obtain cell counts as a function of compound concentration. Kuramochi cells labeled with mApple-H2B were seeded on 384-well assay-ready plates. Plates were placed in an IncuCyte® (Sartorius) and scanned at 0 and 72 hours. IncuCyte® software was used to count the number of fluorescent nuclei in each well. The fold change in cell count from 0 to 72 hours in wells treated with increasing compounds concentrations (10 pts, ½ log dilution, 20 μM top concentration) was normalized to DMSO control wells. The normalized cell counts were fit with dose response curves and a […] was calculated.
# CDK2/Cyclin E1 = molecular target: T1, CDK2/Cyclin E1 (Homo sapiens, UniProt P24941); assay: Caliper Assay (LabChip EZ Reader mobility shift assay), inhibition of CDK2/Cyclin E1 activity; format: biochemical; details: 2.5 nM CDK2/Cyclin E1(14-475), 100 μM ATP, 30 min preincubation; read-out: Caliper Assay (CDK2/CCNE1): IC50
# T1 construct: purchased 14-475
# Protocol: Inhibition of CDK2/Cyclin E1 activity in the presence of compounds of the present disclosure was evaluated using a Caliper LabChip® EZ Reader mobility shift assay. In the assay, activated CDK2/Cyclin E1 catalyzes the phosphorylation of a fluorescently tagged peptide 5-FAM-QSPKKG-CONH2 (PerkinElmer, FL Peptide 18) which induces a difference in capillary electrophoresis mobility. The peptide substrate and product were measured, and the conversion ratio was used to determine the inhibition (as % activity and IC50 values) of CDK2/Cyclin E1. Reactions contained 50 mM HEPES pH 7.5, 10 mM MgCl2, 1 mM EDTA, 2 mM DTT, 0.01% Brij35, 0.5 mg/mL BSA, 0.1% DMSO, 2.5 nM CDK2/Cyclin E1(14-475), 100 μM ATP, and 1.5 μM fluorescent peptide substrate.
# Dose titrations of inhibitors in 100% DMSO were combined with 3.25 nM CDK2/Cyclin E1(14-475) and 130 μM of ATP in reaction buffer. The mixtures were incubated for 30 minutes before the addition of fluorescent peptide substrate to initiate the kinase reaction. The final conditions were 2.5 nM CDK2/Cyclin E1(14-475), 100 μM ATP, and 1.5 μM fluorescent peptide. The reactions were stopped after 100 minutes with the addition of EDTA (6 mM final EDTA concentration). The stopped reactions were analyzed on a Caliper LabChip© EZ Reader II. The conversion ratios were normalized to yield % activity, plotted against compound concentration, and fit to a four-parameter equation to determine the IC50 for each compound.
SMILES,IC50 (CDK2/Cyclin E1) [µM],IC50 (Kuramochi cells; 72 h) [µM],IC50 (Kuramochi cells; 72 hours) [µM]
"Cc1cc(C)n(C(C)c2nc(C3CN(C(=O)c4cnn(Cc5ccccc5)c4)CC34CN(C(=O)[C@H]3CC3(C)C)C4)no2)n1 (single isomer, unassigned) [I-2]",,5 to 10,
"CC1(C)CC1C(=O)N1CC2(CN(C(=O)c3cncs3)CC2(F)c2nnc(C(F)(F)c3ccc(Cl)c(Cl)c3)o2)C1 (single isomer, unassigned) [I-38 1st]",> 10,> 10,
"CC1(C)C[C@@H]1C(=O)N1CC2(CN(C(=O)c3cncs3)CC2(F)c2nnc(C(F)(F)c3ccc(Cl)c(Cl)c3)o2)C1 (single isomer, unassigned) [I-38 3rd]",> 10,,> 10
"O=C(c1onc2ccccc12)N1CC(c2nnc(C(F)(F)c3ccc(Cl)c(Cl)c3)o2)C2(C1)CN(C(=O)[C@H]1CC1(F)F)C2 (single isomer, unassigned) [I-151 1st]",> 10,> 10,
CC1(C)C[C@@H]1C(=O)N1CC2(CN(C(=O)c3cnn(Cc4ccccc4)c3)CC2c2nnc(Cc3ccc(Cl)c(Cl)c3)o2)C1 (some centres unmarked) [I-4],1 to 10,,> 10
"CC1(C)C[C@@H]1C(=O)N1CC2(CN(C(=O)c3cnn(Cc4ccccc4)c3)CC2c2nnc(Nc3ccc(Br)cc3)o2)C1 (stereo partly drawn) [I-5, (1-benzyl-1H-pyrazol-4-yl)(8-(5-((4-bromophenyl)amino)-1,3,4-oxadiazol-2-yl)-2-((S)-2,2-dimethylcyclopropane-1-carbonyl)-2,6-diazaspiro[3.4]octan-6-yl)methanone]",1 to 10,> 10,
"CC1(C)C[C@@H]1C(=O)N1CC2(CN(C(=O)c3cnn(Cc4ccccc4)c3)CC2c2nnc(Cc3ccc(Cl)c(Cl)c3)[nH]2)C1 (stereo partly drawn) [I-6, (1-benzyl-1H-pyrazol-4-yl)(8-(5-(3,4-dichlorobenzyl)-4H-1,2,4-triazol-3-yl)-2-((S)-2,2-dimethylcyclopropane-1-carbonyl)-2,6-diazaspiro[3.4]octan-6-yl)methanone]",1 to 10,5 to 10,
"Cc1cc(C)n(C(C)c2nc(C3CN(C(=O)c4cncs4)CC34CN(C(=O)[C@H]3CC3(C)C)C4)no2)n1 (stereo partly drawn) [I-9, (8-(5-(1-(3,5-dimethyl-1H-pyrazol-1-yl)ethyl)-1,2,4-oxadiazol-3-yl)-2-((S)-2,2-dimethylcyclopropane-1-carbonyl)-2,6-diazaspiro[3.4]octan-6-yl)(thiazol-5-yl)methanone]",1 to 10,> 10,
Cc1ccc(CNC(=O)c2coc(C3CN(C(=O)c4cnn(Cc5ccccc5)c4)CC34CN(C(=O)[C@H]3CC3(C)C)C4)n2)nn1 (some centres unmarked) [I-10],> 10,> 10,
C[C@@H](NC(=O)c1coc(C2CN(C(=O)c3cnn(Cc4ccccc4)c3)CC23CN(C(=O)[C@H]2CC2(C)C)C3)n1)c1ccccc1 (some centres unmarked) [I-11],1 to 10,≤ 0.5,
CC1(C)C[C@@H]1C(=O)N1CC2(CN(C(=O)c3cnn(Cc4ccccc4)c3)CC2c2nnc(CC3CCOCC3)o2)C1 (some centres unmarked) [I-12],1 to 10,> 10,
Cc1cc(C)n(Cc2nnc(C3CN(C(=O)c4cnn(Cc5ccccc5)c4)CC34CN(C(=O)[C@H]3CC3(C)C)C4)o2)n1 (some centres unmarked) [I-13],1 to 10,> 10,
"CC1(C)C[C@@H]1C(=O)N1CC2(CN(C(=O)c3cnn(Cc4ccccc4)c3)CC2c2nnc(Cc3cncnc3)o2)C1 (stereo partly drawn) [I-14, (1-benzyl-1H-pyrazol-4-yl)(2-((S)-2,2-dimethylcyclopropane-1-carbonyl)-8-(5-(pyrimidin-5-ylmethyl)-1,3,4-oxadiazol-2-yl)-2,6-diazaspiro[3.4]octan-6-yl)methanone]",1 to 10,> 10,
"CC1(C)C[C@@H]1C(=O)N1CC2(CN(C(=O)c3cnn(Cc4ccccc4)c3)C[C@@H]2c2nnc(Cc3ccc(Cl)c(Cl)c3)o2)C1 [I-16, (1-benzyl-1H-pyrazol-4-yl)((R)-8-(5-(3,4-dichlorobenzyl)-1,3,4-oxadiazol-2-yl)-2-((S)-2,2-dimethylcyclopropane-1-carbonyl)-2,6-diazaspiro[3.4]octan-6-yl)methanone]",1 to 10,> 10,
CC1(C)C[C@@H]1C(=O)N1CC2(CN(C(=O)c3cnn(Cc4ccccc4)c3)CC2c2nnc(CC3CCC(F)(F)CC3)o2)C1 (some centres unmarked) [I-20],1 to 10,> 10,
Cc1ccc(Cc2nnc(C3CN(C(=O)c4cnn(Cc5ccccc5)c4)CC34CN(C(=O)[C@H]3CC3(C)C)C4)o2)nn1 (some centres unmarked) [I-22],1 to 10,> 10,
CC1(C)C[C@@H]1C(=O)N1CC2(CN(C(=O)c3cncs3)CC2c2nnc(Cc3cc4ccccc4[nH]3)o2)C1 (some centres unmarked) [I-26],1 to 10,> 10,

# Further lines, with some results ahead:
IC50 (CDK2/Cyclin E1) [µM],SMILES,IC50 (Kuramochi cells; 72 h) [µM],IC50 (Kuramochi cells; 72 hours) [µM]
0.01 to 0.1,"CC(c1nc(C2CN(C(=O)c3cncs3)CC23CN(C(=O)[C@H]2CC2(C)C)C3)no1)n1ccc(C2CCCC2)n1 (single isomer, unassigned) [I-36 1st]",> 10,
0.01 to 0.1,"CC(c1nc(C2CN(C(=O)c3cncs3)CC23CN(C(=O)[C@H]2CC2(C)C)C3)no1)n1ccc(C2CCCC2)n1 (single isomer, unassigned) [I-36 4th]",,> 10
≤ 0.01,"CC(c1nc(C2CN(C(=O)c3cncs3)CC23CN(C(=O)[C@H]2CC2(C)C)C3)no1)n1ccc(C2CCCC2)n1 (single isomer, unassigned) [I-36 5th]",,> 10
1 to 10,"CC1(C)C[C@@H]1C(=O)N1CC2(CN(C(=O)c3cncs3)CC2(F)c2nnc(C(F)(F)c3ccc(Cl)c(Cl)c3)o2)C1 (single isomer, unassigned) [I-38 2nd]",> 10,
0.1 to 1,"CC1(C)C[C@@H]1C(=O)N1CC2(CN(C(=O)c3cnccn3)CC2c2nnc(C(F)(F)c3ccc(Cl)c(Cl)c3)o2)C1 (single isomer, unassigned) [I-45 1st]",> 10,
1 to 10,"O=C(c1onc2ccccc12)N1CC(c2nnc(C(F)(F)c3ccc(Cl)c(Cl)c3)o2)C2(C1)CN(C(=O)[C@H]1CC1(F)F)C2 (single isomer, unassigned) [I-151 2nd]",,> 10
0.1 to 1,CC1(C)C[C@@H]1C(=O)N1CC2(CN(C(=O)c3cnn(Cc4ccccc4)c3)CC2c2noc(Cc3ccc(Cl)cc3)n2)C1 (some centres unmarked) [I-1],5 to 10,
1 to 10,CCO[C@H]1C[C@@H](c2nc(C3CN(C(=O)c4cnn(Cc5ccccc5)c4)CC34CN(C(=O)[C@H]3CC3(C)C)C4)no2)C1 (some centres unmarked) [I-3],> 10,
0.1 to 1,"CC1(C)C[C@@H]1C(=O)N1CC2(CN(C(=O)c3cnn(Cc4ccccc4)c3)CC2c2cc(NC(=O)C3CC3)on2)C1 (stereo partly drawn) [I-7, N-(3-(6-(1-benzyl-1H-pyrazole-4-carbonyl)-2-((S)-2,2-dimethylcyclopropane-1-carbonyl)-2,6-diazaspiro[3.4]octan-8-yl)isoxazol-5-yl)cyclopropanecarboxamide]",5 to 10,
0.1 to 1,"CC1(C)C[C@@H]1C(=O)N1CC2(CN(C(=O)c3cnn(Cc4ccccc4)c3)CC2c2ncc(Cc3ccc(Cl)cc3)o2)C1 (stereo partly drawn) [I-8, (1-benzyl-1H-pyrazol-4-yl)(8-(5-(4-chlorobenzyl)oxazol-2-yl)-2-((S)-2,2-dimethylcyclopropane-1-carbonyl)-2,6-diazaspiro[3.4]octan-6-yl)methanone]",5 to 10,
0.1 to 1,CC1(C)C[C@@H]1C(=O)N1CC2(CN(C(=O)c3cnn(Cc4ccccc4)c3)CC2c2nnc(CCC3CCC(F)(F)CC3)o2)C1 (some centres unmarked) [I-17],> 10,
0.1 to 1,Cc1cc(C)n(C(C)c2nnc(C3CN(C(=O)c4cnn(Cc5ccccc5)c4)CC34CN(C(=O)[C@H]3CC3(C)C)C4)o2)n1 (some centres unmarked) [I-18],> 10,
0.1 to 1,"Cc1cc(C)n([C@@H](C)c2nc(C3CN(C(=O)c4cnn(Cc5ccccc5)c4)CC34CN(C(=O)[C@H]3CC3(C)C)C4)no2)n1 (stereo partly drawn) [I-21, (1-benzyl-1H-pyrazol-4-yl)(8-(5-(1-(3,5-dimethyl-1H-pyrazol-1-yl)ethyl)-1,2,4-oxadiazol-3-yl)-2-((S)-2,2-dimethylcyclopropane-1-carbonyl)-2,6-diazaspiro[3.4]octan-6-yl)methanone]",> 10,
0.1 to 1,CC1(C)C[C@@H]1C(=O)N1CC2(CN(C(=O)c3cnn(Cc4ccccc4)c3)CC2c2nnc(Cc3ccncc3)o2)C1 (some centres unmarked) [I-23],> 10,
0.1 to 1,CC1(C)C[C@@H]1C(=O)N1CC2(CN(C(=O)c3cnn(Cc4ccccc4)c3)CC2c2nnc(Cc3ccc(Cl)c(Cl)c3)o2)C1 (some centres unmarked) [I-24],5 to 10,
0.1 to 1,CC1(C)C[C@@H]1C(=O)N1CC2(CN(C(=O)c3cncs3)CC2c2nnc(Cc3cccc(C4CCOCC4)n3)o2)C1 (some centres unmarked) [I-25],> 10,
